According to paper PMC5999115, “Anti-tumor activity of phenoxybenzamine and its inhibition of histone deacetylases” (PLoS ONE, 2018):

Experiments:
[1] = test system: OVXF OVCAR-8; experiment: Oncotest CellTiter-Blue cell viability assay, 72 hours; assay type: cell-based, human
Description: (§1) Further studies with varying drug concentrations on selected human cell lines, in most cases those studied in the NCI60 screen, were conducted by Oncotest GmbH laboratories, Freiburg, Germany; Oncotest is a division of Charles River Laboratories. The dissolution procedure for PBZ and the cell culture […] was 72 hours; anti-tumor activity was determined with the CellTiter-Blue® Cell Viability Assay, Promega, Mannheim, Germany. The 50% Inhibitory (IC50) concentrations were determined. The results are the average of duplicate assays. Paclitaxel was included as a reference compound to confirm the integrity of the assays. See S1 Appendix for further details.
(§2) “Cell lines were routinely passaged once or twice weekly and maintained in culture for up to 20 passages. Cells were grown at 37°C in a humidified atmosphere with 5% CO2 in RPMI 1640 medium (25 mM HEPES, with L-glutamine, #FG1385, Biochrom, Berlin, Germany) supplemented with 10% (v/v) fetal calf serum (Sigma, Taufkirchen, Germany) and 0.1 mg/mL gentamicin (Life Technologies, Karlsruhe, Germany).”

[2] = test system: LXFA NCI-H522; experiment: as above; assay type: cell-based, human
Description: as §1, §2

[3] = OVXF OVCAR-8, 1% FCS, study P495C
[4] = OVXF OVCAR-8, 10% FCS, study P495A
[5] = OVXF OVCAR-8, 10% FCS, study P495B
[6] = LXFA NCI-H522, 1% FCS, study P495C
[7] = LXFA NCI-H522, 10% FCS, study P495A
[8] = LXFA NCI-H522, 10% FCS, study P495B

CC(COc1ccccc1)N(CCCl)Cc1ccccc1 (centres unmarked) [PBZ, phenoxybenzamine]
Percent cell growth in Oncotest screen with 10% FCS (72 hr incubation) ([1]; 10 μM phenoxybenzamine, OVCAR-8): 90% | IC50 ([1]; Homo sapiens, OVXF OVCAR-8 Ovarian, 1% FCS): 31.9 µM | Test/Control (%) at Drug Concentration [uM] 1,0E+00 [1, 3]: 102% | Test/Control (%) at Drug Concentration [uM] 1,0E+01 [1, 3]: 100% | Test/Control (%) at Drug Concentration [uM] 1,0E+02 [1, 3]: 22% | Test/Control (%) at Drug Concentration [uM] 3,2E+00 [1, 3]: 104% | Test/Control (%) at Drug Concentration [uM] 3,2E+01 [1, 3]: 61% | Test/Control (%) at Drug Concentration [uM] 1,0E+00 [1, 4]: 84% | Test/Control (%) at Drug Concentration [uM] 1,0E+01 [1, 4]: 90% | Test/Control (%) at Drug Concentration [uM] 1,0E+02 [1, 4]: 67% | Test/Control (%) at Drug Concentration [uM] 1,0E-01 [1, 4]: 85% | Test/Control (%) at Drug Concentration [uM] 1,0E-02 [1, 4]: 90% | Test/Control (%) at Drug Concentration [uM] 3,2E+00 [1, 4]: 92% | Test/Control (%) at Drug Concentration [uM] 3,2E+01 [1, 4]: 96% | Test/Control (%) at Drug Concentration [uM] 3,2E-01 [1, 4]: 86% | Test/Control (%) at Drug Concentration [uM] 3,2E-02 [1, 4]: 86% | Test/Control (%) at Drug Concentration [uM] 3,2E-03 [1, 4]: 84% | Test/Control (%) at Drug Concentration [uM] 1,0E+00 [1, 5]: 89% | Test/Control (%) at Drug Concentration [uM] 1,0E+01 [1, 5]: 82% | Test/Control (%) at Drug Concentration [uM] 1,0E+02 [1, 5]: 32% | Test/Control (%) at Drug Concentration [uM] 1,0E-01 [1, 5]: 86% | Test/Control (%) at Drug Concentration [uM] 1,0E-02 [1, 5]: 90% | Test/Control (%) at Drug Concentration [uM] 1,0E-03 [1, 5]: 92% | Test/Control (%) at Drug Concentration [uM] 3,2E+00 [1, 5]: 84% | Test/Control (%) at Drug Concentration [uM] 3,2E+01 [1, 5]: 74% | Percent cell growth in Oncotest screen with 10% FCS (72 hr incubation) ([2]; 10 μM phenoxybenzamine, NCI-H522): 108% | IC50 ([2]; Homo sapiens, LXFA NCI-H522 Non-small-cell lung, 1% FCS): 51.5 µM | Test/Control (%) at Drug Concentration [uM] 1,0E+00 [2, 6]: 99% | Test/Control (%) at Drug Concentration [uM] 1,0E+01 [2, 6]: 99% | Test/Control (%) at Drug Concentration [uM] 1,0E+02 [2, 6]: 6% | Test/Control (%) at Drug Concentration [uM] 3,2E+00 [2, 6]: 106% | Test/Control (%) at Drug Concentration [uM] 3,2E+01 [2, 6]: 89% | Test/Control (%) at Drug Concentration [uM] 1,0E+00 [2, 7]: 99% | Test/Control (%) at Drug Concentration [uM] 1,0E+01 [2, 7]: 108% | Test/Control (%) at Drug Concentration [uM] 1,0E+02 [2, 7]: 14% | Test/Control (%) at Drug Concentration [uM] 1,0E-01 [2, 7]: 96% | Test/Control (%) at Drug Concentration [uM] 1,0E-02 [2, 7]: 81% | Test/Control (%) at Drug Concentration [uM] 3,2E+00 [2, 7]: 107% | Test/Control (%) at Drug Concentration [uM] 3,2E+01 [2, 7]: 110% | Test/Control (%) at Drug Concentration [uM] 3,2E-01 [2, 7]: 98% | Test/Control (%) at Drug Concentration [uM] 3,2E-02 [2, 7]: 82% | Test/Control (%) at Drug Concentration [uM] 3,2E-03 [2, 7]: 76% | Test/Control (%) at Drug Concentration [uM] 1,0E+00 [2, 8]: 100% | Test/Control (%) at Drug Concentration [uM] 1,0E+01 [2, 8]: 93% | Test/Control (%) at Drug Concentration [uM] 1,0E+02 [2, 8]: 29% | Test/Control (%) at Drug Concentration [uM] 1,0E-01 [2, 8]: 100% | Test/Control (%) at Drug Concentration [uM] 1,0E-02 [2, 8]: 100% | Test/Control (%) at Drug Concentration [uM] 1,0E-03 [2, 8]: 100% | Test/Control (%) at Drug Concentration [uM] 3,2E+00 [2, 8]: 100% | Test/Control (%) at Drug Concentration [uM] 3,2E+01 [2, 8]: 97%
